US10842779B2, “Heterocyclic compounds and their use in preventing or treating bacterial infections” (priority 2015, dated 2020)
pIC50: −log10 of the molar value. Like-named read-outs stand apart in the source and are kept apart here.

Columns and labels:
[1] = target: T1, SHV-1 (Klebsiella pneumoniae, UniProt P0AD64); assay: β-Lactamase inhibitory activity, nitrocefin hydrolysis; format: biochemical
T1 construct: made in house; host or cells: E. coli
Method: (§3) Enzyme activity was monitored by spectrophotometric measurement of nitrocefin (NCF-TOKU-E, N005) hydrolysis at 485 nm, at room temperature and in assay buffer A: 100 mM Phosphate pH7, 2% glycerol and 0.1 mg/mL Bovine serum albumin (Sigma, B4287). Enzymes were cloned in E. coli expression vector, expressed and purified in house using classical procedures. To a transparent polystyrene plate (Corning, 3628) were added in each well 5 μL DMSO or inhibitor dilutions in DMSO and 80 μL enzyme in buffer A. Plates were immediately read at 485 nm in a microplate spectrophotometer (BioTek, PowerWave HT) to enable background subtraction. After 30 min of pre-incubation at room temperature, 15 μL of NCF (200 μM final) were finally added in each well. Final enzyme concentrations were 0.1 nM (TEM-1), 0.075 nM (SHV-1), 0.4 nM (CTX-M-15), 1 nM (KPC-2), 0.2 nM (P99 AmpC), 0.2 nM (CMY-37), 0.4 nM (AmpC P. aeruginosa), 0.2 nM (OXA-1), 1.2 nM (OXA-11), 0.4 nM (OXA-15) and 0.3 nM (OXA-48). After 20 min incubation at room temperature, plates were once again read at 485 nm. Enzyme activity was obtained by subtracting the final signal by the background, and was converted to enzyme inhibition using non inhibited wells. IC50 curves were fitted to a classical Langmuir equilibrium model with Hill slope using XLFIT (IDBS).

[2] = target: T2, CTX-M-15 (Escherichia coli, UniProt Q9EXV5); assay: as above; format: biochemical; conditions: class (A); 30 min pre-incubation
T2 construct: made in house; host or cells: E. coli
Method: as §3

[3] = target: T3, KPC-2 (Klebsiella pneumoniae, UniProt Q9F663); assay: as above; format: biochemical; conditions: class (A); 30 min pre-incubation
T3 construct: made in house; host or cells: E. coli
Method: Enzyme activity was monitored by spectrophotometric measurement of nitrocefin (NCF-TOKU-E, N005) hydrolysis at 485 nm, at room temperature and in assay buffer A: 100 mM Phosphate pH7, 2% glycerol and 0.1 mg/mL Bovine serum albumin (Sigma, B4287). […] To a transparent polystyrene plate (Corning, 3628) were added in each well 5 μL DMSO or inhibitor dilutions in DMSO and 80 μL enzyme in buffer A. Plates were immediately read at 485 nm in a microplate spectrophotometer (BioTek, PowerWave HT) to enable background subtraction. After 30 min of pre-incubation at room temperature, 15 μL of NCF (200 μM final) were finally added in each well. Final enzyme concentrations were 0.1 nM (TEM-1), 0.075 nM (SHV-1), 0.4 nM (CTX-M-15), 1 nM (KPC-2), 0.2 nM (P99 AmpC), 0.2 nM (CMY-37), 0.4 nM (AmpC P. aeruginosa), 0.2 nM (OXA-1), 1.2 nM (OXA-11), 0.4 nM (OXA-15) and 0.3 nM (OXA-48). After 20 min incubation at room temperature, plates were once again read at 485 nm. Enzyme activity was obtained by subtracting the final signal by the background, and was converted to enzyme inhibition using non inhibited wells. IC50 curves were fitted to a classical Langmuir equilibrium model with Hill slope using XLFIT (IDBS).

[4] = target: T4, OXA-15 (Pseudomonas aeruginosa, UniProt Q51574); assay: as above; format: biochemical
T4 construct: made in house; host or cells: E. coli
Method: as §3

[5] = tested on: C. freundii; assay: MIC of compounds alone, broth microdilution; format: cell-based; conditions: Citrobacter freundii, alone, read-out: MIC
Method: (§1) Method 2: MIC of Compounds and Synergy with Ceftazidime Against Bacterial Isolates (Table 2 and 3)
(§2) Compounds of the present invention were assessed against genotyped bacterial strains alone or in combination with the β-lactam ceftazidime. In the assays, MICs of said compounds, or of ceftazidime at fixed concentrations of said compounds were determined by the broth microdilution method according to the Clinical Laboratory Standards Institute (CLSI—M7-A7). Briefly, compounds alone according to the invention were prepared in DMSO and spotted (2 μL each) on sterile polystyrene plates (Corning, 3788). Compounds and ceftazidime dilutions were prepared in DMSO and spotted (1 μL each) on sterile polystyrene plates (Corning, 3788). Log phase bacterial suspensions were adjusted to a final density of 5×10^5 cfu/mL in cation-adjusted Mueller-Hinton broth (Beckton-Dickinson) and added to each well (98 μL). Microplates were incubated for 16-20 h at 35° C. in ambient air. The MIC of the compounds was defined as the lowest concentration of said compounds that prevented bacterial growth as read by visual inspection. The MIC of ceftazidime at each compound concentration was defined as the lowest concentration of ceftazidime that prevented bacterial growth as read by visual inspection.

[6] = tested on: C. murliniae; assay: MIC of compounds alone, broth microdilution; format: cell-based; conditions: alone; CMU 210102; beta-lactamases VIM-4; read-out: MIC
Method: as §1, §2

[7] = tested on: E. aerogenes; assay: MIC of compounds alone, broth microdilution; format: cell-based; conditions: Klebsiella aerogenes; alone; EAE 200261; beta-lactamases TEM-x AmpC; read-out: MIC
Method: as §1, §2

[8] = tested on: E. cloacae; assay: MIC of compounds alone, broth microdilution; format: cell-based; conditions: Enterobacter cloacae
Method: as §1, §2

[9] = tested on: E. coli; assay: MIC of compounds alone, broth microdilution; format: cell-based; conditions: Escherichia coli
Method: as §1, §2

T3 sequence (Q9F663 25-293, looked up, species assumed): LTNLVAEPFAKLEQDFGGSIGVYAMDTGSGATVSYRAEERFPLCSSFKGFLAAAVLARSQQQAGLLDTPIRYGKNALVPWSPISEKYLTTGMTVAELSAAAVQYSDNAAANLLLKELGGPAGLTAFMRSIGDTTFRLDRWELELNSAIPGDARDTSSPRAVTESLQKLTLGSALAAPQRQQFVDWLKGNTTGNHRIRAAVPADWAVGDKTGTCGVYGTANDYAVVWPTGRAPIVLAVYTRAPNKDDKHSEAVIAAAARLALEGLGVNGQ
T2 sequence (Q9EXV5 29-291, species assumed): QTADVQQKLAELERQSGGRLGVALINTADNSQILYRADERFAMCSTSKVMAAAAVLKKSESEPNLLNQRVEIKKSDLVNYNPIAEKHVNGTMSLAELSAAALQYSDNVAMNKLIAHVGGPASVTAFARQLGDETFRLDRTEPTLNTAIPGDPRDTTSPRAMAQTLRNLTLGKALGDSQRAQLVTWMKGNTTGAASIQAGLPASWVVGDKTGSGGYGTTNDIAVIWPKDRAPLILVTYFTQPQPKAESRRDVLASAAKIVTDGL
T1 sequence (P0AD64 22-286): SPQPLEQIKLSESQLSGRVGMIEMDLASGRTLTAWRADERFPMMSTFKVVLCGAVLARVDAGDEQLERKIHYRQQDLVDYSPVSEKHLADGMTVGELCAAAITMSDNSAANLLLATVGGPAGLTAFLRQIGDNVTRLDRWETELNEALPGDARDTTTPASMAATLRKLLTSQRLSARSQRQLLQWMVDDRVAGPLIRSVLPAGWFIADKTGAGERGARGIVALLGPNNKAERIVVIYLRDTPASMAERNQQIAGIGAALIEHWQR
T4 sequence (Q51574 22-275): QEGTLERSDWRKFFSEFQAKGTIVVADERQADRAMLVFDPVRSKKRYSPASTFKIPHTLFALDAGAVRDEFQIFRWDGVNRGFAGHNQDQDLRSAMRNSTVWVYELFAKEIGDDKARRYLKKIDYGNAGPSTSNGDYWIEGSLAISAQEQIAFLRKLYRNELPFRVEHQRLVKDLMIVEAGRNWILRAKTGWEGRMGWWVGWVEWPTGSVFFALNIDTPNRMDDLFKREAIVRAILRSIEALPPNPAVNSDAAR

**Q.** How did the pIC50 [1] turn out when `O=C(O)C(F)(F)F.O=C1N2C[C@H](c3scnc3[C@H]2c2ncc[nH]2)N1OS(=O)(=O)[O-].[Na+]` (relative stereo) [Example 1, Sodium and 2,2,2-trifluoroacetate [trans-7-(1H-imidazol-3-ium-2-yl)-9-oxo-3-thia-5,8,10-triaza-tricyclo[6.2.1.0^2,6]undeca-2(6),4-dien-10-yl]sulfate] was run?
**A.** 8.26

**Q.** What about the pIC50 [2] of the same molecule?
**A.** 8.57

**Q.** What about the pIC50 [3] of the same molecule?
**A.** 8.38

**Q.** And the pIC50 [4]?
**A.** 6.57

**Q.** And the MIC ([5]; CFR UFR10, beta-lactamases OXA-48)?
**A.** 1 µg/mL

**Q.** And the MIC ([5]; CFR UFR11, beta-lactamases TEM-1 OXA-1 OXA-48)?
**A.** 8 µg/mL

**Q.** And the MIC ([5]; CFR UFR37, beta-lactamases TEM-1, CTX-M-15 NDM-1)?
**A.** 2 µg/mL

**Q.** And the MIC [6]?
**A.** 4 µg/mL

**Q.** And the MIC [7]?
**A.** 8 µg/mL

**Q.** What about the MIC ([8]; ECL 2185D, beta-lactamases OXA-163, read-out: MIC) of the same molecule?
**A.** 8 µg/mL

**Q.** And the MIC ([8]; ECL 190310, beta-lactamases AmpC, read-out: MIC)?
**A.** 4 µg/mL

**Q.** And the MIC ([8]; ECL 190408, beta-lactamases TEM-1, CTX-M-15 OXA-1, read-out: MIC)?
**A.** 0.5 µg/mL

**Q.** And the MIC ([8]; ECL 200138, beta-lactamases AmpC, read-out: MIC)?
**A.** 8 µg/mL

**Q.** And the MIC ([8]; ECL 200322, beta-lactamases TEM-1, CTX-M-15 OXA-1, read-out: MIC)?
**A.** 1 µg/mL

**Q.** What about the MIC ([8]; ECL 260033, beta-lactamases AmpC, read-out: MIC) of the same molecule?
**A.** 8 µg/mL

**Q.** What about the MIC ([8]; ECL 260253, beta-lactamases TEM-1 KPC-3, read-out: MIC) of the same molecule?
**A.** 8 µg/mL

**Q.** What about the MIC ([8]; ECL 260323, beta-lactamases AmpC, read-out: MIC) of the same molecule?
**A.** 4 µg/mL

**Q.** And the MIC ([8]; ECL 260508, beta-lactamases TEM-1, CTX-M-15, read-out: MIC)?
**A.** 1 µg/mL

**Q.** What about the MIC ([8]; ECL HAN, beta-lactamases OXA-35, read-out: MIC) of the same molecule?
**A.** 8 µg/mL

**Q.** What about the MIC ([8]; ECL NEM146383, beta-lactamases AmpC, read-out: MIC) of the same molecule?
**A.** 2 µg/mL

**Q.** And the MIC ([8]; ECL P99, beta-lactamases AmpC, read-out: MIC)?
**A.** 4 µg/mL

**Q.** What about the MIC ([8]; ECL UFR12, beta-lactamases CTX-M-9 OXA-48, read-out: MIC) of the same molecule?
**A.** 2 µg/mL

**Q.** What about the MIC ([8]; ECL UFR13, beta-lactamases TEM-1, SHV-12, CTX-M-9 OXA-48, read-out: MIC) of the same molecule?
**A.** 2 µg/mL

**Q.** And the MIC ([8]; ECL UFR14, beta-lactamases TEM-1, SHV-12, CTX-M-15 DHA-1 OXA-1 OXA-48, read-out: MIC)?
**A.** 8 µg/mL

**Q.** And the MIC ([8]; ECL UFR38, beta-lactamases CTX-M-15 NDM-1, read-out: MIC)?
**A.** 1 µg/mL

**Q.** And the MIC ([8]; ECL UFR51, beta-lactamases SHV-12 IMP-8, read-out: MIC)?
**A.** 0.5 µg/mL

**Q.** And the MIC ([8]; ECL UFR60, beta-lactamases TEM-1, CTX-M-15 KPC-2, read-out: MIC)?
**A.** 8 µg/mL

**Q.** What about the MIC ([8]; ECL UFR70, beta-lactamases TEM-1, CTX-M-15 CMY-2 OXA-1, read-out: MIC) of the same molecule?
**A.** 1 µg/mL

**Q.** And the MIC ([8]; ECL UFR84, beta-lactamases TEM-1 AmpC OXA-1, read-out: MIC)?
**A.** 8 µg/mL

**Q.** What about the MIC ([8]; ECL UFR85, beta-lactamases TEM-1, CTX-M-15 AmpC, read-out: MIC) of the same molecule?
**A.** 2 µg/mL

**Q.** What about the MIC ([9]; ECO 180070, beta-lactamases TEM-1, CTX-M-15, read-out: MIC) of the same molecule?
**A.** 1 µg/mL

**Q.** And the MIC ([9]; ECO 190314, beta-lactamases CTX-M-1, read-out: MIC)?
**A.** 0.5 µg/mL

**Q.** What about the MIC ([9]; ECO 190317, beta-lactamases TEM-1, SHV-12, CTX-M-15 OXA-1, read-out: MIC) of the same molecule?
**A.** 1 µg/mL

**Q.** And the MIC ([9]; ECO 190457, beta-lactamases CTX-M-15 OXA-1, read-out: MIC)?
**A.** 1 µg/mL

**Q.** And the MIC ([9]; ECO 190549, beta-lactamases CTX-M-1, read-out: MIC)?
**A.** 0.25 µg/mL

**Q.** What about the MIC ([9]; ECO 200159, beta-lactamases TEM-1, CTX-M-14, read-out: MIC) of the same molecule?
**A.** 0.25 µg/mL

**Q.** And the MIC ([9]; ECO 200259, beta-lactamases CTX-M-14, read-out: MIC)?
**A.** 0.5 µg/mL

**Q.** What about the MIC ([9]; ECO 200344, beta-lactamases CTX-M-1, read-out: MIC) of the same molecule?
**A.** 0.5 µg/mL

**Q.** And the MIC ([9]; ECO 260096, beta-lactamases CTX-M-132, read-out: MIC)?
**A.** 4 µg/mL

**Q.** What about the MIC ([9]; ECO 260304, beta-lactamases CTX-M-15, read-out: MIC) of the same molecule?
**A.** 1 µg/mL

**Q.** What about the MIC ([9]; ECO 260508, beta-lactamases TEM-1, CTX-M-15 OXA-1, read-out: MIC) of the same molecule?
**A.** 2 µg/mL

**Q.** And the MIC ([9]; ECO UFR16, beta-lactamases TEM-1, CTX-M-15 OXA-1 OXA-48, read-out: MIC)?
**A.** 2 µg/mL

**Q.** What about the MIC ([9]; ECO UFR17, beta-lactamases TEM-1, CTX-M-15 CMY-2 OXA-1 OXA-181, read-out: MIC) of the same molecule?
**A.** 4 µg/mL

**Q.** And the MIC ([9]; ECO UFR18, beta-lactamases CTX-M-15 OXA-204, read-out: MIC)?
**A.** 1 µg/mL

**Q.** And the MIC ([9]; ECO UFR19, beta-lactamases CTX-M-15 CMY-2 OXA-1 OXA-204, read-out: MIC)?
**A.** 1 µg/mL

**Q.** What about the MIC ([9]; ECO UFR32, beta-lactamases TEM-1, VEB-1 OXA-10, read-out: MIC) of the same molecule?
**A.** 1 µg/mL
